Assay results: article PMC6345774, “Kinetic and thermodynamic effects of phosphorylation on p53 binding to MDM2” (Scientific Reports, 2019)

How the values were obtained:
[1] = target: T1, human MDM2 (residues 2–125) (Homo sapiens, UniProt Q00987); assay: Stopped-flow fluorescence kinetics of p53-peptide binding to MDM2; details: 15 °C; for Kd: ratio of kinetic rate constants, assuming two-state binding without intermediates, read-out: Kd (koff/kon); for kon / koff: stopped-flow Trp fluorescence, 50 mM Tris-HCl pH 8.0, 250 mM NaCl, 0.5 mM TCEP, peptide 0.125 μM, ± fitting error; for kon: MDM2 1–3 μM, pseudo-first order, slope, read-out: kon 10^6; for koff: y-axis intercept of pseudo-first-order plot
T1 construct: human MDM2 (residues 2–125); made in house; host or cells: E. coli BL21 (DE3)
T1 sequence (Q00987 2-125): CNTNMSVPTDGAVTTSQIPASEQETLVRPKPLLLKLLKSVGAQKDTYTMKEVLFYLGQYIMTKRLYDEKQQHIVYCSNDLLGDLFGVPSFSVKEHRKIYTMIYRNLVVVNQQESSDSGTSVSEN
Protocol: Expression and purification of human MDM2 (residues 2–125) was carried out as described[23] in BL21 (DE3) cells. […] Protein concentration was determined from the absorbance of its seven Tyr residues.
The kinetics of the MDM2/p53-peptide interaction was measured at 15 °C using an Applied Photophysics stopped-flow fluorimeter in the same buffer as that used in the equilibrium fluorescence experiments. The experimental procedure has been described previously. Association kinetics was measured under pseudo-first order conditions, by keeping the MDM2 concentration in excess of that of the peptide. […] Excitation wavelength was 280 nm with a cut-off filter of 315 nm on the emission side. The slit widths were 10 nm for excitation and emission.
At each MDM2 concentration a minimum of six traces were acquired; and the fitting in all cases for all peptides was carried out with the averaging of at least four traces. The averaged trace was always fitted to a single exponential function, which yielded, kobs. Fitting to a single exponential curve was carried out by using Kaleidagraph (Synergy Software); reported errors in kobs are from the exponential fitting. The dissociation (koff) and association (kon) rate constants were obtained from the straight line: kobs=kon×[MDM2]+koff.
Errors in both rates were from the linear fitting; the errors were always larger for koff due to the extrapolation to the y-axis intercept.

[2] = Far-UV CD of isolated peptides in aqueous solution (helicity); type: physicochemical; details: 5 °C, 50 mM phosphate pH 6.8; for molar ellipticity at 222 nm, [Θ]222: far-UV CD; for % Helix in water ([Θ]222): from molar ellipticity at 222 nm assuming 100% helix = −31500 deg cm^2 dmol^−1
Protocol: Spectra were acquired on a Jasco J815 spectropolarimeter (Jasco, Japan) interfaced with a Peltier unit. The instrument was periodically calibrated with (+) 10-camphorsulphonic acid. Far-UV measurements (in aqueous or TFE solutions) were performed in 0.1-cm-pathlength quartz cells (Hellma), with a response time of 2 s, a band width of 1 nm, data were collected every 0.2 nm, and a scan velocity of 50 nm/min (or 20 nm/min). […] In all peptides, two concentrations (10 μM and 70 μM) in aqueous solutions (50 mM sodium phosphate buffer, pH 6.8 […]) were used to determine whether either the shapes or the intensities of the spectra were concentration-dependent. […] In all cases (aqueous solution or TFE titrations), the corresponding blank solutions (containing only buffer, or buffer and the corresponding amount of TFE) were subtracted from the spectra.
(§1) For the TFE titrations, a peptide concentration of 40 μM was used. The samples were prepared the day before and left overnight at 5 °C to reach equilibrium. The experiments in aqueous solution were acquired at 5 °C, in 50 mM sodium phosphate buffer, pH 6.8. Raw ellipticity was converted to molar ellipiticity, [Θ], from which the percentage of helical populations was determined. Co-solvent concentrations were indicated in percentage of volume. […] Fitting of the titration curves, obtained by observation of the molar ellipticity at 222 nm as the TFE concentration was increased, was carried out with Kaleidagraph (Synergy software).

[3] = TFE titrations monitored by CD (helical population); type: physicochemical; details: 5 °C, 50 mM phosphate pH 6.8, peptide 40 μM; for [TFE]1/2 (midpoint of TFE titration) / m (m-value of TFE titration): CD at 222 nm, two-state fit, ± fitting error; for % Helix in water (from ΔG in TFE titrations): from ΔG = [TFE]1/2 × m, for 1% values the error was 10%
Protocol: Unlike the above programs, which make assumptions about how the ellipticity signal relates to secondary structure content, a TFE titration allows the determination of helical content derived from the free-energy change for the equilibrium between folded (in TFE) and unfolded peptide, without any such assumptions.
as §1

[4] = target: T1, human MDM2 (residues 2–125); assay: Isothermal titration calorimetry of p53-peptide binding to MDM2; details: ITC, 15 °C, 50 mM Tris-HCl pH 8.0, 250 mM NaCl, 0.5 mM TCEP; for Kd / ΔH of binding: peptide titrated into MDM2; for Kd: read-out: Log KA (converted); for ΔH of binding: repeated twice
Protocol: Protein concentration was determined from the absorbance of its seven Tyr residues.
Peptide binding to MDM2 was measured by using an Auto-iTC200 (Malvern Instruments, Malvern UK), as described[24],[37]. Data acquisition was carried out with a reference power of 10 µcal/s, initial delay of 60 s, spacing between injections of 150 s. In a typical ITC experiment, the p53 peptide was loaded into a 40 μl syringe and the protein was placed into the sample cell. The sequence of injections consisted of one 0.5 μl injection followed by 19 injections of 2 μl each. Control experiments loading peptide into buffer solution were also carried out for each peptide. Experiments were performed with freshly prepared protein solutions, at 15 °C in the same buffer used in fluorescence experiments. ITC experiments were performed at 15 °C rather than 25 °C to avoid aggregation of MDM2.
Each peak was integrated using NITPIC software. The areas of the peaks are related to the heat exchanged upon binding and/or dilution. This heat was corrected of the heat of dilution (i.e., the average heat of the injections after the equilibrium has reached the saturation). Titration with each peptide was repeated twice.

[5] = target: T2, human MDM2 (residues 2–125) (human, UniProt Q00987 2-125); assay: ITC; p53 peptide in the syringe titrated into MDM2 in the cell; Auto-iTC200; 15 °C; 50 mM Tris-HCl pH 8.0, 250 mM NaCl, 0.5 mM TCEP; details: both partners purified
T2 construct: MDM2 (murine double minute 2), human, N-terminal domain, residues 2-125; no tag is named; also called N-terminal domain of MDM2
T2 sequence (Q00987 2-125): as above

| Molecule | molar ellipticity at 222 nm, [Θ]222 [2] [deg cm^2 dmol^−1] | % Helix in water ([Θ]222) [2] [%] | [TFE]1/2 (midpoint of TFE titration) [3] | m (m-value of TFE titration) [3] | % Helix in water (from ΔG in TFE titrations) [3] [%] | TΔS of binding [4] [kcal/mol] | ΔH of binding [4] [kcal/mol] | other results |
| --- | --- | --- | --- | --- | --- | --- | --- | --- |
| CC(=O)N[C@@H](CCC(=O)O)C(=O)N[C@@H](CC(=O)O)C(=O)N[C@@H](Cc1ccccc1)C(=O)N[C@@H](CO)C(=O)N[C@@H](CC(=O)O)C(=O)N[C@@H](CC(C)C)C(=O)N[C@@H](Cc1c[nH]c2ccccc12)C(=O)N[C@@H](CCCCN)C(=O)N[C@@H](CC(C)C)C(=O)N[C@@H](CC(C)C)C(=O)N1CCC[C@H]1C(=O)N[C@@H](CCC(=O)O)C(=O)N[C@@H](CC(N)=O)C(N)=O [P53-D18] | −3313 | 10.5 | 12.0 ± 0.7 % (vol:vol) | 383 ± 142 cal mol^−1(%)^−1 | 1 | -12.19 | -18.39 | Kd [1]: 5 ± 3 µM; kon [1]: 5e+06 ± 3e+06 M⁻¹ s⁻¹; koff [1]: 23 ± 9 s⁻¹; Kd [4]: 19.1 µM |
| Ac-EeFdDLWeeLPEN-NH2 [P53-E18-D20-E24-E25, p53 Glu17-Asn29 peptide with phosphomimetics at Thr18 and Ser20 and Lys24, Leu25 mutated to Glu] | 142.7 | 0 |  |  |  |  |  | binding to MDM2 in stopped-flow kinetics ([1]; no exponential behaviour in any trace at any MDM2 concentration tested): did not show any evidence of binding |
| Ac-EEFDDLWKLLPEN-NH2 [P53-E18-D20] | −2100 | 6.6 | 15 ± 1 % (vol:vol) | 135 ± 18 cal mol^−1(%)^−1 | 3 ± 1 | -2.64 | -8.80 | kon [1]: 4e+06 ± 2e+06 M⁻¹ s⁻¹; koff [1]: 18 ± 6 s⁻¹ |
| CC(=O)N[C@@H](CCC(=O)O)C(=O)N[C@@H](CC(=O)O)C(=O)N[C@@H](Cc1ccccc1)C(=O)N[C@@H](CCC(=O)O)C(=O)N[C@@H](CC(=O)O)C(=O)N[C@@H](CC(C)C)C(=O)N[C@@H](Cc1c[nH]c2ccccc12)C(=O)N[C@@H](CCCCN)C(=O)N[C@@H](CC(C)C)C(=O)N[C@@H](CC(C)C)C(=O)N1CCC[C@H]1C(=O)N[C@@H](CCC(=O)O)C(=O)N[C@@H](CC(N)=O)C(N)=O [P53-D18-E20] | −3597 | 11.4 | 33 ± 5 % (vol:vol) | 112 ± 70 cal mol^−1(%)^−1 | 1 | -3.03 | -9.90 | Kd [4]: 5.89 µM |
| CC(=O)N[C@@H](CCC(=O)O)C(=O)N[C@H](C(=O)N[C@@H](Cc1ccccc1)C(=O)N[C@@H](COP(=O)(O)O)C(=O)N[C@@H](CC(=O)O)C(=O)N[C@@H](CC(C)C)C(=O)N[C@@H](Cc1c[nH]c2ccccc12)C(=O)N[C@@H](CCCCN)C(=O)N[C@@H](CC(C)C)C(=O)N[C@@H](CC(C)C)C(=O)N1CCC[C@H]1C(=O)N[C@@H](CCC(=O)O)C(=O)N[C@@H](CC(N)=O)C(N)=O)[C@@H](C)OP(=O)(O)O [P53-pTpS] | −2547 | 8.1 |  |  |  |  |  |  |
| CC(=O)N[C@@H](CCC(=O)O)C(=O)N[C@@H](CC(=O)O)C(=O)N[C@@H](Cc1ccccc1)C(=O)N[C@@H](CC(=O)O)C(=O)N[C@@H](CC(=O)O)C(=O)N[C@@H](CC(C)C)C(=O)N[C@@H](Cc1c[nH]c2ccccc12)C(=O)N[C@@H](CCCCN)C(=O)N[C@@H](CC(C)C)C(=O)N[C@@H](CC(C)C)C(=O)N1CCC[C@H]1C(=O)N[C@@H](CCC(=O)O)C(=O)N[C@@H](CC(N)=O)C(N)=O [P53-D18-D20] | −2811 | 9 | 9.8 ± 0.8 % (vol:vol) | 263 ± 47 cal mol^−1(%)^−1 | 1 | -3.96 | -9.95 |  |
| CC(=O)N[C@@H](CCC(=O)O)C(=O)N[C@H](C(=O)N[C@@H](Cc1ccccc1)C(=O)N[C@@H](CC(=O)O)C(=O)N[C@@H](CC(=O)O)C(=O)N[C@@H](CC(C)C)C(=O)N[C@@H](Cc1c[nH]c2ccccc12)C(=O)N[C@@H](CCCCN)C(=O)N[C@@H](CC(C)C)C(=O)N[C@@H](CC(C)C)C(=O)N1CCC[C@H]1C(=O)N[C@@H](CCC(=O)O)C(=O)N[C@@H](CC(N)=O)C(N)=O)[C@@H](C)O [P53-D20] | −2811 | 9 |  |  |  |  |  | Kd [1]: 0.7 ± 0.2 µM; kon [1]: 9.5e+06 ± 900000 M⁻¹ s⁻¹; koff [1]: 7 ± 2 s⁻¹ |
| CC(=O)N[C@@H](CCC(=O)O)C(=O)N[C@H](C(=O)N[C@@H](Cc1ccccc1)C(=O)N[C@@H](COP(=O)(O)O)C(=O)N[C@@H](CC(=O)O)C(=O)N[C@@H](CC(C)C)C(=O)N[C@@H](Cc1c[nH]c2ccccc12)C(=O)N[C@@H](CCCCN)C(=O)N[C@@H](CC(C)C)C(=O)N[C@@H](CC(C)C)C(=O)N1CCC[C@H]1C(=O)N[C@@H](CCC(=O)O)C(=O)N[C@@H](CC(N)=O)C(N)=O)[C@@H](C)O [P53-pS] | −4614 | 14.6 |  |  |  |  |  |  |
| Ac-EDFSDLWKLLPEN-NH2 [Ac-EdFSDLWKLLPEN-NH2 (P53-D18)] |  |  |  |  |  |  |  | Kd [5]: 19 µM; Log KA [5]: 4.72; dH [5]: -18.4 kcal/mol |
| Ac-EDFDDLWKLLPEN-NH2 [Ac-EdFdDLWKLLPEN-NH2 (P53-D18-D20)] |  |  |  |  |  |  |  | dH [5]: -9.95 kcal/mol |
| Ac-EDFEDLWKLLPEN-NH2 [Ac-EdFeDLWKLLPEN-NH2 (P53-D18-E20)] |  |  |  |  |  |  |  | dH [5]: -9.9 kcal/mol |
